Test results taken from patent US20260007680A1, “Compounds and Their Use as PDE4 Activators” (Mironid Limited, priority 2022, published 2026).

Key:
PDE4B2 = target: T1, PDE4B2 (Homo sapiens, UniProt Q07343); assay: PDE assay, PDE4B2 short form (Experiment 1); assay type: biochemical; details: 100 μM test compound; mean % increase in counts over basal activity
T1 construct: the full length human PDE4B2 short isoform; made in house; cytosol fraction of cell lysate, prepared as described for PDE4D5
T1 sequence (Q07343 1-564 isoform Q07343-2): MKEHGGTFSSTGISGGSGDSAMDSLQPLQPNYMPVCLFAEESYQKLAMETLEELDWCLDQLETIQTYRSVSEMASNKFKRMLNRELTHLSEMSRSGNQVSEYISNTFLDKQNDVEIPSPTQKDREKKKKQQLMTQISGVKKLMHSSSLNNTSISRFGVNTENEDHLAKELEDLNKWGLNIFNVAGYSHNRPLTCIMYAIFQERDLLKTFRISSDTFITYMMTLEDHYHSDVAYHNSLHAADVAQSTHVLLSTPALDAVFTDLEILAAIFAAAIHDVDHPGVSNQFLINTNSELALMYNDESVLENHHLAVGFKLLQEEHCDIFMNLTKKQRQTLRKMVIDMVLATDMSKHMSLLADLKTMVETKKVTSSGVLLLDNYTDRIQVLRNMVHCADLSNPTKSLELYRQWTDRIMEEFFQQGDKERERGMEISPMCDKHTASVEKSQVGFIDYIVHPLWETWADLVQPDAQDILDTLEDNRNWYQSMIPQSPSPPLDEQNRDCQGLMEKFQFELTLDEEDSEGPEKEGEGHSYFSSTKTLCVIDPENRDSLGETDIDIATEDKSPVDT
Description: (§1) One suitable method of detecting whether or not a compound is capable of serving as an activator of a PDE4 long form is using a two-step radio-assay procedure described in Experiment 1. In summary, the method involves incubating a PDE4 long form with a test small molecule activator, together with [^3H]-labelled cAMP to assess alterations in the breakdown of cAMP to the 5′-adenosine monophosphate (5′-AMP) product. A sample of the reaction mixture from such an incubation is subsequently treated with snake venom 5′-nucleotidase to allow conversion of the nucleotide [^3H]-labelled 5′-AMP to the uncharged nucleoside [^3H]-labelled adenosine, which can be separated and quantified to assess PDE4 activity and the effect of the test compound (Thompson, W. J. and Appleman, M. M. Biochemistry 10: 311-316, 1971, with some modifications as described in: Marchmont, R. J. and Houslay, M. D. Biochem J. 187: 381-92, 1980).
(§2) Experiment 1: Measurement of Modulation of Enzyme Activity by PDE4 Long Form Activators of the Present Invention Using Full-Length Human PDE4 Isoforms; Long Forms PDE4D5, PDE4C3, PDE4B1 and Short Form PDE4B2 • (Marchmont, R. J. and Houslay, M. D. Biochem. J. 187: 381-92, 1980)
(§3) Where stable cell lines were generated the clonal isolates were expanded to obtain cell lines that stably expressed the full-length human PDE4 long isoforms and the full length human PDE4B2 short isoform. These were called the HEK-PDE4D5, HEK-PDE4B1 and HEK-PDE4B2 cell lines, respectively.
(§4) PDE assays were performed in thin walled V-bottomed 96-well plates. The assays were performed at a final concentration of 10 mM Tris/5 mM MgCl2 plus PDE4D5 cell lysate cytosol fraction, containing over-expressed PDE4D5, with and without test compound. The lysate/compound mix were incubated together for 15 min at room temperature on an orbital shaker prior to addition of [^3H] cAMP (final concentration 1 μM [^3H] cAMP; Perkin Elmer) to a final volume of 50 μL per reaction. The reactions were then incubated for 10 minutes at 30° C., terminated by heating for 2 min at 95° C. and allowed to cool. Snake venom (12.5 μL of 1 mg/mL; Crotalus atrox, Sigma) was then added and the plates were agitated and incubated for a further 15 minutes at 30° C. Dowex ion exchange resin (Sigma, chloride form, 200-400 mesh; 200 μL; prepared as a 1:1 Dowex:water stock, thoroughly re-suspended and diluted 2:1 with ethanol) was then added to each well and the plates incubated for 15 min at room temperature on an orbital shaker ensuring sufficient agitation for resin suspension (550 RPM). The reaction mixture was then transferred to a 96 well filter plate (Millipore; 0.45 μm pore size) and filtered into a receiving 96-well plate to remove the dowex suspension. 30 μL of the filtered solution was then transferred to the wells of an Opti-plate (Perkin Elmer) 96 well assay plate and 120 μL of Microscint 40 scintillation fluid was added. The plate was then placed on an orbital shaker for 10 min at high speed (900 rpm) to mix the sample with scintillation fluid prior to quantitation using a plate based scintillation counter (Top-Count).
The % increase in counts in the presence of test compound at a particular concentration indicates the % increase in enzyme activity at that concentration.

PDE4D5 = target: T2, PDE4D5 (Homo sapiens, UniProt Q08499); assay: PDE assay, activation of PDE4D5 long form (Experiment 1); assay type: biochemical; details: for activation at 100 µM: 100 μM test compound, mean % increase in counts over basal activity
T2 construct: Using Full-Length Human PDE4 Isoforms; Long Forms PDE4D5, PDE4C3, PDE4B1 and Short Form PDE4B2; made in house; cytosol fraction of cell lysate
T2 sequence (Q08499 1-745 isoform Q08499-6): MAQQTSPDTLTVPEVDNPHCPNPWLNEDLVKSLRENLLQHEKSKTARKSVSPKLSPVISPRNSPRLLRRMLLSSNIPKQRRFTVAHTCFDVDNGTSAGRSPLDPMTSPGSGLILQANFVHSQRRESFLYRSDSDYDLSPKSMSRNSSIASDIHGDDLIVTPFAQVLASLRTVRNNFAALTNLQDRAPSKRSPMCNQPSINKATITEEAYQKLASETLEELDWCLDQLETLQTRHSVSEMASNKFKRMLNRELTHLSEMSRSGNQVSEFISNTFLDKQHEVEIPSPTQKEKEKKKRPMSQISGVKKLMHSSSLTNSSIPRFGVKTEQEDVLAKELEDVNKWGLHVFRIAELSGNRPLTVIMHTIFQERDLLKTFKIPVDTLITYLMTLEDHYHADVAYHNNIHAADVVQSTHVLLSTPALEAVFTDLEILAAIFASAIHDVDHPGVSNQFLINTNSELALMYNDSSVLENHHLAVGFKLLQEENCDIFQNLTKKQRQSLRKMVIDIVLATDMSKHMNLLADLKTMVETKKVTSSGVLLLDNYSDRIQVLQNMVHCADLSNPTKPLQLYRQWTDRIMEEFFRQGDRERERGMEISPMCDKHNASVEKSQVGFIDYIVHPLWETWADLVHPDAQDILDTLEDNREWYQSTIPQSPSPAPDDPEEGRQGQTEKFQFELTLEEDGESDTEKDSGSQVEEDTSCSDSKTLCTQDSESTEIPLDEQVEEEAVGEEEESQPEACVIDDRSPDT
Description: as §1, §2
For transient transfection of exogenous PDE4 long isoforms, HEK 293 cells were transfected with pcDNA3.1 or pDEST^TM PDE4 expression vectors using Lipofectamine LTX/Plus reagent (Invitrogen) as outlined by the manufacturer.
as §3
HEK-PDE4D5 cells were seeded out in 100 mm plates and incubated at 37° C. in an atmosphere of 5% CO2, 95% air. Cell lysates were prepared using KHEM buffer [50 mM KCl, 10 mM EGTA, 50 mM HEPES (pH 7.2), 1.92 mM MgCl2].
To prepare the cell lysates, the 100 mm plates containing the cells were placed on ice and washed with ice-cold PBS (phosphate buffered saline, pH 7.4). KHEM buffer (500 μL) was added to the cells. Cells were then scraped off the plate and triturated using a needle (BD Microlance™ 0.8, 40 mm). The lysed cells were then centrifuged at 2000 rpm for 10 minutes to remove cell debris and the supernatant (cell lysate containing recombinant PDE4D5) was transferred to a fresh tube and kept on ice.
The cell lysate containing recombinant PDE4D5 was transferred into a centrifuge tube and placed into an ultracentrifuge (BECKMAN COULTER) and spun at high speed (100,000 g) for 30 minutes at 4° C. The cytosol fraction was then collected and its protein amount determined using a BCA protein assay.
as §4, with “30 μL of the filtered solution was then transferred to the wells of an Opti-plate (Perkin Elmer) 96 well assay plate and 120 μL of Microscint 40 scintillation fluid was added. The plate was then placed on an orbital shaker for 10 min at high speed (900 rpm) to mix the sample with scintillation fluid prior to quantitation using a plate based scintillation counter (Top-Count).” left out

activation at 100 µM (PDE4B2) [%]	activation at 100 µM (PDE4D5) [%]	activation of PDE4D5 (FIG. 1) (PDE4D5; concentration-response)	SMILES
-39	115		Cc1ccc(-c2nc3cc(C(=O)N[C@H]4CCOc5ccccc54)ccc3[nH]2)cn1 [Example 2, (S)—N-(chroman-4-yl)-2-(6-methylpyridin-3-yl)-1H-benzo[d]imidazole-5-carboxamide]
-6	140	concentration-dependent activation	Cc1cncc(-c2nc3cc(C(=O)N[C@H]4CCOc5ccccc54)ccc3[nH]2)c1 [Example 4, (S)—N-(chroman-4-yl)-2-(5-methylpyridin-3-yl)-1H-benzo[d]imidazole-5-carboxamide]
5	45		Cc1cncc(-c2nc3ccc(C(=O)N[C@H]4CCOc5ccccc54)cc3n2C)c1 [Example 28, (S)—N-(chroman-4-yl)-1-methyl-2-(5-methylpyridin-3-yl)-1H-benzo[d]imidazole-6-carboxamide]
-8	33		Cc1ccncc1-c1nc2cc(C(=O)N[C@H]3CCOc4ccccc43)ccn2n1 [Example 53, (S)—N-(chroman-4-yl)-2-(4-methylpyridin-3-yl)-[1,2,4]triazolo[1,5-a]pyridine-7-carboxamide]
